Test results: publication PMC6161789, “Modeling and antitumor studies of a modified L–penetratin peptide targeting E2F in lung cancer and prostate cancer” (Oncotarget, 2018)
Ends that are not written are not given here.

How the values were obtained:
DU145 cells = assay: Stability testing of the peptide in RPMI 1640 with 10% FBS, read out by DU145 cell viability; format: in vitro ADME, human; details: pre-incubation in RPMI 1640 with 10% FBS, 37°C, 24 hours; then 24 hours on DU145 cells, MTS 490 nm, triplicate
Method: Figure 4 A. D- Arg Peptide incubated in 10% FBS RPMI media at 37°C for 24 hours is resistant to proteolysis; it is as effective as the non-incubated D- Arg Peptide in DU145 cells. D- Arg Peptide was incubated in RPMI media containing 10% FBS at 37°C for 24 hours. DU145 cells were seeded in a 96 well plate at 5000 cells in each well. After 24 hours either the incubated D- Arg Peptide or the non-incubated D- Arg Peptide was added to the cells. B. D- Arg and L-Arg Peptide incubated in 10% FBS RPMI media at 37°C for 24 hours. DU145 cells were seeded in a 96 well plate at 5000 cells in each well. After 24 hours either the incubated D- Arg Peptide or the L- Arg Peptide was added to the cells. The cell viability in both experiments were assessed after another 24 hours by measuring the absorption at 490nm using the MTS tetrazolium Promega CellTitre 96® Aqueous One Solution Cell proliferation assay according to the manufacturer’s instructions. Each time point was done in triplicate and values are represented by mean with standard mean deviation.
The peptide was mixed with the RPMI 1640 medium containing 10% FBS and incubated at 37 °C for 24 hours. Cells were plated in a 96 well plate in 180 μl of the media containing 10% FBS. After 24 hours, 20 μl of either the incubated D- Arg or the regular (fresh) D- Arg Peptide was added to the cell plate and tested after another 24 hours. Then 20 μl of the MTS tetrazolium Promega CellTitre 96® Aqueous One Solution Cell Proliferation Assay was added to each well and incubated for two to three hours. Absorbance was measured at 490 nm as per the manufacturer’s protocol to determine the cell viability.

Burkitt lymphoma cells = details: cited from earlier work
Excerpt: (§1) This unique E2F1 inhibitory peptide with the sequence His-His-His-Arg-Leu-Ser-His, found by phage display, was discovered by its ability to bind tightly to an immobilized consensus E2F1 promoter sequence. Importantly, treatment of tumor xenografts of human small cell lung cancer H69 and human prostate cancer DU14 ...

[1] = system: pRB negative small cell lung cancer (SCLC) cells; details: cited from earlier work
Excerpt: as §1

[2] = system: DU145 prostate cancer cells; details: cited from earlier work
Excerpt: as §1

[3] = system: consensus E2F1 promoter sequence; details: found by phage display; cited from earlier work
Excerpt: as §1

| Molecule | Stability in serum: incubated D- Arg versus incubated L- Arg peptide (DU145 cells) | Stability: toxicity of pre-incubated versus fresh non-incubated peptide (DU145 cells) | Cytotoxicity (Burkitt lymphoma cells) | Cytotoxicity [1] | Cytotoxicity [2] | Binding to immobilized consensus E2F1 promoter sequence [3] |
| --- | --- | --- | --- | --- | --- | --- |
| CC[C@H](C)[C@H](NC(=O)[C@H](CCCCN)NC(=O)[C@@H](NC(=O)[C@H](CCC(N)=O)NC(=O)[C@@H](N)CCCNC(=N)N)[C@@H](C)CC)C(=O)N[C@@H](Cc1c[nH]c2ccccc12)C(=O)N[C@@H](Cc1ccccc1)C(=O)N[C@@H](CCC(N)=O)C(=O)N[C@@H](CC(N)=O)C(=O)N[C@@H](CCCNC(=N)N)C(=O)N[C@@H](CCCNC(=N)N)C(=O)N[C@@H](CCSC)C(=O)N[C@@H](CCCCN)C(=O)N[C@@H](Cc1c[nH]c2ccccc12)C(=O)N[C@@H](CCCCN)C(=O)N[C@@H](CCCCN)C(=O)N[C@@H](Cc1c[nH]cn1)C(=O)N[C@@H](Cc1c[nH]cn1)C(=O)N[C@@H](Cc1c[nH]cn1)C(=O)N[C@H](CCCNC(=N)N)C(=O)N[C@@H](CC(C)C)C(=O)N[C@@H](CO)C(=O)N[C@@H](Cc1c[nH]cn1)C(=O)O [D-Arg PEP] | more resistant to proteolysis after pre-incubation in serum | as potent as the non-incubated fresh D- Arg PEP | – | – | – | – |
| CC[C@H](C)[C@H](NC(=O)[C@H](CCCCN)NC(=O)[C@@H](NC(=O)[C@H](CCC(N)=O)NC(=O)[C@@H](N)CCCNC(=N)N)[C@@H](C)CC)C(=O)N[C@@H](Cc1c[nH]c2ccccc12)C(=O)N[C@@H](Cc1ccccc1)C(=O)N[C@@H](CCC(N)=O)C(=O)N[C@@H](CC(N)=O)C(=O)N[C@@H](CCCNC(=N)N)C(=O)N[C@@H](CCCNC(=N)N)C(=O)N[C@@H](CCSC)C(=O)N[C@@H](CCCCN)C(=O)N[C@@H](Cc1c[nH]c2ccccc12)C(=O)N[C@@H](CCCCN)C(=O)N[C@@H](CCCCN)C(=O)N[C@@H](Cc1c[nH]cn1)C(=O)N[C@@H](Cc1c[nH]cn1)C(=O)N[C@@H](Cc1c[nH]cn1)C(=O)N[C@@H](CCCNC(=N)N)C(=O)N[C@@H](CC(C)C)C(=O)N[C@@H](CO)C(=O)N[C@@H](Cc1c[nH]cn1)C(=O)O [L-Arg PEP] | unstable in serum | – | cytotoxic at low micro molar concentrations | cytotoxic at low micro molar concentrations | cytotoxic at low micro molar concentrations | – |
| HHHRLSH [E2F1 inhibitory peptide, 7-mer peptide His-His-His-Arg-Leu-Ser-His found by phage display] | – | – | – | – | – | bind tightly |
